Experimental data published in ChEMBL document CHEMBL4834450, “Design, synthesis and antimicrobial activity of novel 2-aminothiophene containing cyclic and heterocyclic moieties” (2021).

Assays:
Assay type in all cases: functional
Settings in all cases: read-out: DIZ
[1] = tested on: Escherichia coli; assay: Antibacterial activity against Escherichia coli MTCC442 at 5 ug/ml
[2] = tested on: Syncephalastrum racemosum; assay: Antifungal activity against Syncephalastrum racemosum RCMB05922 at 5 ug/ml
[3] = tested on: Bacillus subtilis; assay: Antibacterial activity against Bacillis subtilis BS-GA28 at 5 ug/ml
[4] = tested on: Aspergillus fumigatus; assay: Antifungal activity against Aspergillus fumigatus HIC6094 at 5 ug/ml
[5] = tested on: Candida albicans; assay: Antifungal activity against Candida albicans MTCC227 at 5 ug/ml
[6] = tested on: Geotrichum candidum; assay: Antifungal activity against Geotrichum candidum RCMB05097 at 5 ug/ml
[7] = tested on: Streptococcus pneumoniae; assay: Antibacterial activity against Streptococcus pneumoniae ATCC49619 at 5 ug/ml
[8] = tested on: Pseudomonas aeruginosa; assay: Antibacterial activity against Pseudomonas aeruginosa MTCC441 at 5 ug/ml

| Compound | zone of inhibition at 5 µg/mL [1] [mm] | zone of inhibition at 5 µg/mL [2] [mm] | zone of inhibition at 5 µg/mL [3] [mm] | zone of inhibition at 5 µg/mL [4] [mm] | zone of inhibition at 5 µg/mL [5] [mm] | zone of inhibition at 5 µg/mL [6] [mm] | zone of inhibition at 5 µg/mL [7] [mm] | zone of inhibition at 5 µg/mL [8] [mm] |
| --- | --- | --- | --- | --- | --- | --- | --- | --- |
| CCOC(=O)c1c(Nc2ccccc2)sc(-c2ccn(-c3ccc(Cl)cc3)n2)c1-c1ccccc1 | 11.1 | 20.9 | 18.9 | 26.3 | 11.2 | 12.6 | 18.2 | 10.8 |
| C[C@@H]1[C@H](O)[C@@H](C)/C=C/C=C/C=C/C=C/C=C/C=C/C=C/[C@H](O[C@@H]2O[C@H](C)[C@@H](O)[C@H](N)[C@@H]2O)C[C@@H]2O[C@](O)(C[C@@H](O)C[C@@H](O)[C@H](O)CC[C@@H](O)C[C@@H](O)CC(=O)O[C@H]1C)C[C@H](O)[C@H]2C(=O)O [AMPHOTERICIN B] | – | 19.7 | – | 23.7 | 25.4 | 28.7 | – | – |
| CCOC(=O)c1c(Nc2ccccc2)sc(C(=O)/C=C/c2ccc(Cl)cc2)c1-c1ccccc1 | 17.6 | 16.5 | 29.8 | 22.3 | 12.3 | 25.8 | 19.5 | 12.3 |
| CCOC(=O)c1c(Nc2ccccc2)sc(-c2ccnc(S)n2)c1-c1ccccc1 | 11.3 | 16.6 | 12.7 | 15.7 | 12.7 | 12.6 | 12.3 | 9.8 |
| CCOC(=O)c1c(Nc2ccccc2)sc(C(=O)c2cn(-c3ccc(C)cc3)nc2C(C)=O)c1-c1ccccc1 | 11.3 | 16.6 | 12.7 | 15.7 | 12.7 | 12.6 | 12.3 | 9.8 |
| CCOC(=O)c1c(Nc2ccccc2)sc(C(=O)/C=C/c2ccc([N+](=O)[O-])cc2[N+](=O)[O-])c1-c1ccccc1 | 9.9 | 19.6 | 18.9 | 18.9 | 13.4 | 14.8 | 16.5 | 11.3 |
| CCOC(=O)c1ccc(-c2sc(Nc3ccccc3)c(C(=O)OCC)c2-c2ccccc2)nc1C | 11.1 | 20.9 | 18.9 | 26.3 | 11.2 | 12.6 | 18.2 | 10.8 |
| CCOC(=O)c1c(Nc2ccccc2)sc(C(=O)/C=C/c2ccc(Cl)c(Cl)c2)c1-c1ccccc1 | 8.9 | 15.4 | 10.7 | 17.7 | 13.2 | 12.9 | 11.3 | 9.7 |
| CCOC(=O)c1c(Nc2ccccc2)sc(-c2ccnc(N)n2)c1-c1ccccc1 | 10.7 | 13.7 | 19.1 | 18.2 | 18.2 | 19.1 | 16.3 | 11.4 |
| CC1(C)S[C@@H]2[C@H](NC(=O)[C@H](N)c3ccccc3)C(=O)N2[C@H]1C(=O)O [AMPICILLIN] | – | – | 32.4 | – | – | – | 23.8 | – |
| CCOC(=O)c1c(Nc2ccccc2)sc(C(=O)/C=C/c2ccc(O)cc2)c1-c1ccccc1 | 19.5 | 11.2 | 21.4 | 15.7 | 13.3 | 17.3 | 26.7 | 18.7 |
| CCOC(=O)c1c(Nc2ccccc2)sc(C(=O)/C=C/c2cccc(N(C)C)c2)c1-c1ccccc1 | 14.8 | 24.5 | 19.6 | 24.3 | 14.3 | 25.8 | 16.3 | 12.5 |
| CCOC(=O)c1c(Nc2ccccc2)sc(C(=O)/C=C/c2ccc(OC)cc2)c1-c1ccccc1 | 10.2 | 16.1 | 17.9 | 23.4 | 11.9 | 10.8 | 18.9 | 11.4 |
| CCOC(=O)c1c(Nc2ccccc2)sc(-c2ccnc(O)n2)c1-c1ccccc1 | 10.7 | 13.7 | 19.1 | 18.2 | 18.2 | 19.1 | 16.3 | 11.4 |
| CCOC(=O)c1c(Nc2ccccc2)sc(-c2ccn(-c3ccccc3)n2)c1-c1ccccc1 | 10.9 | 18.9 | 12.7 | 15.9 | 15.8 | 19.1 | 12.3 | 11.6 |
| CCOC(=O)c1c(Nc2ccccc2)sc(C(=O)c2cn(-c3ccc(Cl)cc3)nc2C(C)=O)c1-c1ccccc1 | 8.8 | 14.8 | 14.3 | 16.3 | 14.3 | 15.3 | 14.6 | 10.2 |
| CCOC(=O)c1c(Nc2ccccc2)sc(C(=O)/C=C\Nc2ccc([N+](=O)[O-])cc2)c1-c1ccccc1 | 18.8 | 16.5 | 29.8 | 12.6 | 10.9 | 25.8 | 19.5 | 12.3 |
